The source of these data is US20060188566A1, “Nanoparticulate formulations of docetaxel and analogues thereof” (Elan Pharma International Limited, priority 2005, published 2006).

One series has as its system microtubules. The note with it: compared with docetaxel; cited from earlier work.
A short description of series [1]: Particle size of unmilled (conventional, non-nanoparticulate) docetaxel. The format is physicochemical. An excerpt:
Unmilled trihydrate docetaxel has a mean particle size of 61,610 nm, with a D50 of 51,060 nm and a D90 of 119,690 nm.

Series [2] has as its system COX-2 expression in human monocytes. The note with it: human monocytes / human cells; cited from earlier work.
For series [3] the following is noted: cited from earlier work.
Series [4] has as its system plasma proteins, primarily albumin, α1-acid glycoproteins, and lipoproteins. As to conditions: in vitro; cited from earlier work.
The conditions of series [5]: cited from earlier work. The source holds these as a separate data set.
A further series concerns mice. The note with it: mouse, in vivo, iv.
The subject of series [6] is COX-2 expression in murine cells. As to conditions: cited from earlier work.
For series [7] the following is noted: phase I trial; cited from earlier work.
[8] abbreviates: IV administration of a 100-mg/m^2 dose, SD=0.8.
The mark [9] stands for this setting: intravenous doses of 70 mg/m^2 to 115 mg/m^2, 3-compartment model, TAXOTERE®.

Method for mice: The purpose of this experiment was to determine the maximum tolerated dose of a nanoparticulate docetaxel formulation.
To evaluate and characterize the acute toxicity of nanoparticulate docetaxel formulations, two nanoparticulate dispersions were utilized.
Both nanoparticulate docetaxel formulations were administered intravenously at various doses to mice.
The commercially available non-nanoparticulate docetaxel product, TAXOTERE®, was also tested in parallel with the nanoparticulate docetaxel formulations.

On to `CC(=O)OC12COC1CC(O)C1(C)C(=O)C(O)C3=C(C)C(OC(=O)C(O)C(NC(=O)OC(C)(C)C)c4ccccc4)CC(O)(C(OC(=O)C4CCCCC4)C21)C3(C)C` (stereo not drawn) [2-(hexahydro)docetaxel], for which the “inhibitory activity for microtubule disassembly” value with microtubules is reported as “strong inhibitory activity for microtubule disassembly equivalent to docetaxel”.
Turning to `CC(=O)OC12COC1CC(O)C1(C)C(=O)C(O)C3=C(C)C(OC(=O)C(O)C(NC(=O)OC(C)(C)C)C4CCCCC4)CC(O)(C(OC(=O)c4ccccc4)C21)C3(C)C` (stereo not drawn) [3′-dephenyl-3′-cyclohexyldocetaxel], the “inhibitory activity for microtubule disassembly” value in the series with microtubules was “strong inhibitory activity for microtubule disassembly equivalent to docetaxel”.
With `CC(=O)O[C@@]12CO[C@@H]1C[C@H](O)[C@@]1(C)C(=O)[C@H](O)C3=C(C)[C@@H](OC(=O)[C@H](O)[C@@H](NC(=O)OC(C)(C)C)c4ccccc4)C[C@@](O)([C@@H](OC(=O)c4ccccc4)[C@H]21)C3(C)C` [Unmilled trihydrate docetaxel, docetaxel], in series [1], the D50 was 51,060 nm, the D90 was 119,690 nm and the mean particle size is given as 61,610 nm.
With `CC(=O)O[C@@]12CO[C@@H]1C[C@H](O)[C@@]1(C)C(=O)[C@H](O)C3=C(C)[C@@H](OC(=O)[C@H](O)[C@@H](NC(=O)OC(C)(C)C)c4ccccc4)C[C@@](O)([C@@H](OC(=O)c4ccccc4)[C@H]21)C3(C)C` [docetaxel, (2R, 3S)-N-carboxy-3-phenylisoserine, N-tert-butyl ester, 13-ester with 5β-20-epoxy-1, 2α, 4, 7β, 10β, 13α-hexahydroxytax-11-en-9-one 4-acetate 2-benzoate, trihydrate], in series [2], the COX-2 expression induction entry is recorded as “induces COX-2 expression only in human monocytes”. In [3] (setting [8]), the AUC (in general, the area under the concentration-time curve, a measure of exposure) is 4.6 µg·h/mL and the “mean peak plasma level” value is 3.7 µg/mL. Moreover, the “steady-state volume of distribution (mean)” value in series [3] (cancer patients, IV) is given as 113 L. Besides, in series [3] (setting [9]), the “mean population α half-life” value was 4 min, the “mean population β half-life” value was 36 min and the “mean population γ half-life” value was 666 min. For the same compound, the “bound to plasma proteins” value in [4] is “approximately 94%”. Further, the “solubility in water (in words)” value in [5] was “practically insoluble in water”.
On to `CC(=O)O[C@@]12CO[C@@H]1C[C@H](O)[C@@]1(C)C(=O)[C@H](O)C3=C(C)[C@@H](OC(=O)[C@H](O)[C@@H](NC(=O)OC(C)(C)C)c4ccccc4)C[C@@](O)([C@@H](OC(=O)c4ccccc4)[C@H]21)C3(C)C` [unmilled docetaxel (anhydrous), docetaxel], for which, in series [1], the D50 is reported as 175,530 nm, the D90 is listed as 435,810 nm and the mean particle size is recorded as 212,060 nm.
On to TAXOTERE®, for which, in the series on mice, the “maximum tolerated dose (MD)” value was 40 mg/kg.
In the case of paclitaxel, the COX-2 expression induction result in series [2] and in [6] was “paclitaxel-induced COX-2 expression” in each case. The “pharmacokinetic profile (linearity)” value in series [7] is recorded as “nonlinear pharmacokinetics”.
